# Values joined by “and” are separate entries in the source; they are usually repeats but may differ in a detail not shown here. Equal values may be shown once.
# Assays:
# HDAC4 = HDAC4 (Homo sapiens, UniProt P56524); assay: HDAC4 protease-coupled fluorescence (AMC) inhibition assay; assay type: biochemical; details: hr enzyme, class IIa substrate Boc-Lys(trifluoroacetyl)-AMC; read-out: IC50 against HDAC4
# From the text: (§1) The new hydroxamates 2 and 6 were screened and profiled via a protease-coupled assay in which the quantification of HDAC enzyme activity is based on the formation of a free fluorescent group, the 7-amino-4-methyl coumarin (AMC).[42] […] After deacetylation by HDACs, the de(trifluoro)acetylated AMC–peptides were sensitive toward lysine peptidase and free fluorogenic AMC was generated and quantified.[42]
# (§2) To gain insights into its inhibition profile for human HDACs, we tested 3 against hrHDACs 1–6 and 8 following the above procedure (Table 1).
# (§3) Individual IC50 values for each HDAC isozyme were measured with the homogeneous fluorescence release HDAC assay.[42]
# HDAC9 = HDAC9 (Homo sapiens, UniProt Q9UKV0); assay: HDAC9 protease-coupled fluorescence (AMC) inhibition assay; assay type: biochemical; details: hr enzyme, class IIa substrate; read-out: IC50 against HDAC9
# Experimental: as §1, §3
# [1] = test system: L. donovani promastigotes; assay: Resazurin reduction assay, L. donovani promastigotes; assay type: cell-based; details: Leishmania donovani, read-out: percentage of inhibition, L. donovani promastigotes
# HDAC10 = HDAC10 (Homo sapiens, UniProt Q969S8); assay: HDAC10 protease-coupled fluorescence (AMC) inhibition assay; assay type: biochemical; details: hr enzyme; read-out: IC50 against HDAC10
# Experimental: as §1, §3
# HDAC1 = HDAC1 (Homo sapiens, UniProt Q13547); assay: HDAC1 protease-coupled fluorescence (AMC) inhibition assay; assay type: biochemical; details: hr enzyme, 10-dose, 3-fold dilution from 50 μM (3: from 300 μM); read-out: IC50 against HDAC1
# From the text: as §1, §2, §3
# HDAC11 = HDAC11 (Homo sapiens, UniProt Q96DB2); assay: HDAC11 protease-coupled fluorescence (AMC) inhibition assay; assay type: biochemical; details: hr enzyme; read-out: IC50 against HDAC11
# Experimental: as §1, §3
# HDAC6 = biological target: T1, HDAC6 (Homo sapiens, UniProt Q9UBN7); assay: HDAC6 protease-coupled fluorescence (AMC) inhibition assay; assay type: biochemical; details: hr enzyme, 10-dose, 3-fold dilution from 50 μM (3: from 300 μM); read-out: IC50 against HDAC6
# T1 sequence (Q9UBN7 1-1215): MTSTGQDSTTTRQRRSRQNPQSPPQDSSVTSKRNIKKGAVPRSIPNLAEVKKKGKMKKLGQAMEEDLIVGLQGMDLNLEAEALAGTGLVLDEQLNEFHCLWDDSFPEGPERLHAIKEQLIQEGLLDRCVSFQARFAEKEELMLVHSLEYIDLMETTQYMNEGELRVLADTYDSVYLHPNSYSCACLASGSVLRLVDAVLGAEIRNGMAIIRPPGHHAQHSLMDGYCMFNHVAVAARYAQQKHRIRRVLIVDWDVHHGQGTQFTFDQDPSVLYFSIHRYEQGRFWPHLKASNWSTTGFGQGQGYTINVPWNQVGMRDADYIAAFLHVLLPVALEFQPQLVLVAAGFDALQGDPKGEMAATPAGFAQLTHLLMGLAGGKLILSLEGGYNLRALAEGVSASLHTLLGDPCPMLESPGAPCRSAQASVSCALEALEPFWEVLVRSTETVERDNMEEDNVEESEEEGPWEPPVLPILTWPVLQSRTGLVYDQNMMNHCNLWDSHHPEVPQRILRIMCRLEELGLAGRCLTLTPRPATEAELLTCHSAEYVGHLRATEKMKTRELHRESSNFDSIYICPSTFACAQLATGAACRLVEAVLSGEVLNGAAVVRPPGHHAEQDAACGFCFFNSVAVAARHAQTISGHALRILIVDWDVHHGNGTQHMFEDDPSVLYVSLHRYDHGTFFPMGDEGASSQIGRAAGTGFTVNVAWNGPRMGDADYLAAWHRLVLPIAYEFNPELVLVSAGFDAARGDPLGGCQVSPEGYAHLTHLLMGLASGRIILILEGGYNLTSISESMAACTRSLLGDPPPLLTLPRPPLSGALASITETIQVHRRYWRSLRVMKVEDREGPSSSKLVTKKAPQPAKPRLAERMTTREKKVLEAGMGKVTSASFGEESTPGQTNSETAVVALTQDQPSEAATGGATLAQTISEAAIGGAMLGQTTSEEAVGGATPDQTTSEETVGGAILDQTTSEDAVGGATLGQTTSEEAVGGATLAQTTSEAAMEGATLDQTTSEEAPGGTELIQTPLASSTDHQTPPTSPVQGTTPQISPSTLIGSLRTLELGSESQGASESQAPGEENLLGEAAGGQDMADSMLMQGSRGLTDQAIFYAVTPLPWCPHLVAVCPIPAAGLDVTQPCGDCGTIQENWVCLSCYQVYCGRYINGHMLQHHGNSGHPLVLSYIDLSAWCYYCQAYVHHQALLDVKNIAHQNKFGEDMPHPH
# From the text: as §1, §2, §3
# HDAC3 = HDAC3 (Homo sapiens, UniProt O15379); assay: HDAC3 protease-coupled fluorescence (AMC) inhibition assay; assay type: biochemical; details: hr enzyme, 10-dose, 3-fold dilution from 50 μM (3: from 300 μM); read-out: IC50 against HDAC3
# From the text: as §1, §2, §3
# HDAC8 = biological target: T2, HDAC8 (Homo sapiens, UniProt Q9BY41); assay: HDAC8 protease-coupled fluorescence (AMC) inhibition assay; assay type: biochemical; details: hr enzyme, substrate RHK(Ac)K(Ac)AMC; read-out: IC50 against HDAC8
# T2 sequence (Q9BY41 1-377): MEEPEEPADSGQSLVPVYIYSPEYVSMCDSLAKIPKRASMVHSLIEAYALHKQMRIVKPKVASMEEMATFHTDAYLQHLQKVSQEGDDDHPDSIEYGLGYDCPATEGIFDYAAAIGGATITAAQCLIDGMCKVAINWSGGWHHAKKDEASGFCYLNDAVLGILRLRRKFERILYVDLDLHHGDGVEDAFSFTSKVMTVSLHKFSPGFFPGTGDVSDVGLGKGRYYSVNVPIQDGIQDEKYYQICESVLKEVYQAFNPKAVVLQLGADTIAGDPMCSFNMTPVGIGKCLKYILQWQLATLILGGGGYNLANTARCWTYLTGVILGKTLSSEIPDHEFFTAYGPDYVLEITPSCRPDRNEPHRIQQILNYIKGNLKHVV
# From the text: as §1, §2, §3
# [2] = test system: newly transformed schistosomula (NTS); assay: Phenotypic screening on newly transformed schistosomula (NTS); assay type: cell-based, Schistosoma mansoni; details: for IC50: Schistosoma mansoni, 72 h, read-out: IC50, viability of NTS
# HDAC5 = HDAC5 (Homo sapiens, UniProt Q9UQL6); assay: HDAC5 protease-coupled fluorescence (AMC) inhibition assay; assay type: biochemical; details: for IC50: hr enzyme, class IIa substrate Boc-Lys(trifluoroacetyl)-AMC, read-out: IC50 against HDAC5
# From the text: as §1, §2, §3
# [3] = test system: L. amazonensis amastigotes in primary mouse macrophages; details: 10 μM, 3 days, toxic = toxic for macrophages
# HDAC7 = HDAC7 (Homo sapiens, UniProt Q8WUI4); assay: HDAC7 protease-coupled fluorescence (AMC) inhibition assay; assay type: biochemical; details: hr enzyme, class IIa substrate; read-out: IC50 against HDAC7
# Experimental: as §1, §3
# Sequence of HDAC5 (Q9UQL6 whole entry): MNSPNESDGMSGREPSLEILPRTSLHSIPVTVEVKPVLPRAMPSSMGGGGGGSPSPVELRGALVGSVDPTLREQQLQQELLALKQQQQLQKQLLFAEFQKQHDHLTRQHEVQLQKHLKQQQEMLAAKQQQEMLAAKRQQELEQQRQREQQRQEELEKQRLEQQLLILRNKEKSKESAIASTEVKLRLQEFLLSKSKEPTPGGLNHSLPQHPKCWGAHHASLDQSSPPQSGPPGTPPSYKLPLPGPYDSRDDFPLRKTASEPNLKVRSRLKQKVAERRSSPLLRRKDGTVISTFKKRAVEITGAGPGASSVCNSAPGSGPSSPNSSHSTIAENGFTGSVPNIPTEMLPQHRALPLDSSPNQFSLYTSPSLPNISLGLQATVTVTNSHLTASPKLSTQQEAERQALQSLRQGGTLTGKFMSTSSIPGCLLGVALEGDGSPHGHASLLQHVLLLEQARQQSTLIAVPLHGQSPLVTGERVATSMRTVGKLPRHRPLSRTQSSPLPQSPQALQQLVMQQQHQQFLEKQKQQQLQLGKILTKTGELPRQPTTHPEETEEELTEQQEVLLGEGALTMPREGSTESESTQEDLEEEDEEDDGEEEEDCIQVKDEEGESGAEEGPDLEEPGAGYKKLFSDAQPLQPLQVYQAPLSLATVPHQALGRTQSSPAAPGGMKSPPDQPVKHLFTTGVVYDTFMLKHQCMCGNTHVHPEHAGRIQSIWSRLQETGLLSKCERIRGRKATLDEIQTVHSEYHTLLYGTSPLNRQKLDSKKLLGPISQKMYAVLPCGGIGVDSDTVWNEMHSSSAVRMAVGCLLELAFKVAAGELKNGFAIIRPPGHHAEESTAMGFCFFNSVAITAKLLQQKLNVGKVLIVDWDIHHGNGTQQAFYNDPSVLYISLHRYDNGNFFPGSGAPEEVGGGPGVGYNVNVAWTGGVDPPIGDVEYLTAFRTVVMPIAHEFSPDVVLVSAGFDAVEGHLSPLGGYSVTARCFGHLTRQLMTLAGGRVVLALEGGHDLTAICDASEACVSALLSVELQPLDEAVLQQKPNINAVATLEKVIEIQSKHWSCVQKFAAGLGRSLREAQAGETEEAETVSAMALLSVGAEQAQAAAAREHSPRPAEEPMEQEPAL
# Sequence of HDAC1 (Q13547 whole entry): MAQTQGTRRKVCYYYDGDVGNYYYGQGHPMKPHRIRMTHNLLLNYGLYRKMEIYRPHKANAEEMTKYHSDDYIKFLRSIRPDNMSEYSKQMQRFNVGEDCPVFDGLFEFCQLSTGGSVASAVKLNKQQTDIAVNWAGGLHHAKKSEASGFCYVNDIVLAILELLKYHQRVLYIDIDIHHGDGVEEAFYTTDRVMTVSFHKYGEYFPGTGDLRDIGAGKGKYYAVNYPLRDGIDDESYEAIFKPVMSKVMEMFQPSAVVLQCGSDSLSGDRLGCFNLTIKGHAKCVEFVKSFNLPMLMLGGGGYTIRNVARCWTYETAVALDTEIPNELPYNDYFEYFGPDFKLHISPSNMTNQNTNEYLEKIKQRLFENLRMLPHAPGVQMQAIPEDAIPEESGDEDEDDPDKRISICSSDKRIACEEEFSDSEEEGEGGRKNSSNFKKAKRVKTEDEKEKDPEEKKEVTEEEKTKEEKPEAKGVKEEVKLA
# Sequence of HDAC9 (Q9UKV0 whole entry): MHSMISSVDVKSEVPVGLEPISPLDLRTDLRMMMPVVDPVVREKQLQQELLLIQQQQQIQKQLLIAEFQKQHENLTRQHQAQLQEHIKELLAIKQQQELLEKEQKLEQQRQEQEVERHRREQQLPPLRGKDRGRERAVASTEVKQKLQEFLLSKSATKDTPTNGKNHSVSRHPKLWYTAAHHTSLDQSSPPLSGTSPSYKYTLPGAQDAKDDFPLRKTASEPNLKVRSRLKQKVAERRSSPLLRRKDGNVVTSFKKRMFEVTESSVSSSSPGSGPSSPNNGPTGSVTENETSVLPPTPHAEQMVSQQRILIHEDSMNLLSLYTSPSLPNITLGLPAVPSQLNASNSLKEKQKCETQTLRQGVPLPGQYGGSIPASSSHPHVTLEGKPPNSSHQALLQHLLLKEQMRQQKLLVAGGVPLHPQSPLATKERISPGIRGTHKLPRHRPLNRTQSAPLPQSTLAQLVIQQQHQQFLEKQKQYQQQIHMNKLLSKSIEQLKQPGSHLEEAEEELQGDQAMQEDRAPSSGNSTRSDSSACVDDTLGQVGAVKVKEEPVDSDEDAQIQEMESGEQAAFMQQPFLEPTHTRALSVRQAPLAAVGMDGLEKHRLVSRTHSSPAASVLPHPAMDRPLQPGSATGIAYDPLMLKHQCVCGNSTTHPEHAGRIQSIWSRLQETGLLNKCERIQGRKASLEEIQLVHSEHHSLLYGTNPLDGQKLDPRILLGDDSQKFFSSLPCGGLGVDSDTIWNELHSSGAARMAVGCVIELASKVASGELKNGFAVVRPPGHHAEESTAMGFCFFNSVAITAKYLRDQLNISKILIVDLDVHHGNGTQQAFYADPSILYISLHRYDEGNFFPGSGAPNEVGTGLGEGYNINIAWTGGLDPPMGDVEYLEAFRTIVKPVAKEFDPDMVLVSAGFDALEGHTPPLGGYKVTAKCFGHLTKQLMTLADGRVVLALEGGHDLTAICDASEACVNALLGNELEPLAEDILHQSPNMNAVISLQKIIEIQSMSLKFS
# Sequence of HDAC7 (Q8WUI4 whole entry): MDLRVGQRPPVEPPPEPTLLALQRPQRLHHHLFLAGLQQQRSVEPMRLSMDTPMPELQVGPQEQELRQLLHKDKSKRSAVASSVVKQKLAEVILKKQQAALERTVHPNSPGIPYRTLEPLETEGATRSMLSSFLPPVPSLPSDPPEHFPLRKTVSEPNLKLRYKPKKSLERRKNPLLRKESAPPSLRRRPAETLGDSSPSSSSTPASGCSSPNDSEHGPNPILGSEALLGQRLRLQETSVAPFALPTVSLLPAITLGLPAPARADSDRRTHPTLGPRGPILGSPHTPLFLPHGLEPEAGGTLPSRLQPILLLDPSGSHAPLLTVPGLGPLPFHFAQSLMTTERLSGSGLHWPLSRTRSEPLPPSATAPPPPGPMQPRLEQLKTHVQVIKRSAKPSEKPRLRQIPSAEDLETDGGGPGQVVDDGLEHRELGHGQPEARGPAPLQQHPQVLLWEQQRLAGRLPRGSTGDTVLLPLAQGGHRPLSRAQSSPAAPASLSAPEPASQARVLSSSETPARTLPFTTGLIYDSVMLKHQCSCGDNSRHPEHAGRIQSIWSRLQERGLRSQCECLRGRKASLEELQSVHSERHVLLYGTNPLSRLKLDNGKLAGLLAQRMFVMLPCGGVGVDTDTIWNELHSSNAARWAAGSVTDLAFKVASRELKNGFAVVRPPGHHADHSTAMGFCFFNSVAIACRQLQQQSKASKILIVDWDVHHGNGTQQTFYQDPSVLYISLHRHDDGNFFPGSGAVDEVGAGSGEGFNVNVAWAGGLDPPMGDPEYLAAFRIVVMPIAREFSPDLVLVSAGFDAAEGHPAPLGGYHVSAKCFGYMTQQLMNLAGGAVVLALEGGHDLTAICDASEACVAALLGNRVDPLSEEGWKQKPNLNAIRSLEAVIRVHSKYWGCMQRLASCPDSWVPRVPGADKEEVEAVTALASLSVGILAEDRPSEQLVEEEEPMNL
# Sequence of HDAC10 (Q969S8 whole entry): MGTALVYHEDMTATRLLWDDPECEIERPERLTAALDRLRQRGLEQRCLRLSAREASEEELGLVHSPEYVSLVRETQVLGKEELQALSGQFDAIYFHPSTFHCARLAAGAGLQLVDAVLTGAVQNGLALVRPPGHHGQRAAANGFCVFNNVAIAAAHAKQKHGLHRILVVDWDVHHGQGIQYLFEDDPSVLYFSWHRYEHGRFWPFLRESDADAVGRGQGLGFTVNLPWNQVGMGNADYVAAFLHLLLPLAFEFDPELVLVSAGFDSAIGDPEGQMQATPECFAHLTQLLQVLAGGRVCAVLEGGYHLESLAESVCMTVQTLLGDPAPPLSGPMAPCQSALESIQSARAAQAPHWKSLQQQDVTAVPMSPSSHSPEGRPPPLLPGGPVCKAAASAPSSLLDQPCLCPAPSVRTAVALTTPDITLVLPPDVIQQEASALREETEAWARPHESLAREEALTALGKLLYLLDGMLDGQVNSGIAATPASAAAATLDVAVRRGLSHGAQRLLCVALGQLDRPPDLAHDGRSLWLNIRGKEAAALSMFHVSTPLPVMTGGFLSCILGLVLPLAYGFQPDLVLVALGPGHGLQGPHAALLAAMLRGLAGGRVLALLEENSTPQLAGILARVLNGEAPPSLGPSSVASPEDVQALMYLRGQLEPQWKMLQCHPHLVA
# Sequence of HDAC3 (O15379 whole entry): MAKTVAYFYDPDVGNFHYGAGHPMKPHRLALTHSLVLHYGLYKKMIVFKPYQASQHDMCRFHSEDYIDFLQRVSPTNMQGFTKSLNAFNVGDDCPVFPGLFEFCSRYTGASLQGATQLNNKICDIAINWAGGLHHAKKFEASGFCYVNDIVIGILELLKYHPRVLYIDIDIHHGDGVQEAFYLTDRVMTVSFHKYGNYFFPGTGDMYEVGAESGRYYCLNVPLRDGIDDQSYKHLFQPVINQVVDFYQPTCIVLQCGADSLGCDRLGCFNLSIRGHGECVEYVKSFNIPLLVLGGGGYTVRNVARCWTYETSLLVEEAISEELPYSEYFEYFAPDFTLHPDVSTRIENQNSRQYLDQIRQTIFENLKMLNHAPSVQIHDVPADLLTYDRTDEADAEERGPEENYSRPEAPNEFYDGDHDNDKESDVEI
# Sequence of HDAC3 (Q9Y618 395-489 partner limits assumed): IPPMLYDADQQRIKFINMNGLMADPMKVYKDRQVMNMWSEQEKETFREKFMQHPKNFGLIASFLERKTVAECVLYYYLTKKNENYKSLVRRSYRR
Compound,IC50 (HDAC4) [µM],IC50 (HDAC9) [µM],inhibition at 0.8 µM [1] [%],inhibition at 4 µM [1] [%],inhibition at 20 µM [1] [%],IC50 (HDAC10) [µM],IC50 (HDAC1) [µM],IC50 (HDAC11) [µM],IC50 (HDAC6) [µM],IC50 (HDAC3) [µM],IC50 (HDAC8) [µM],"percentage of NTS activity, 72 h ([2]; 10 μM) [%]","percentage of NTS activity, 72 h ([2]; 20 μM)",IC50 [2] [µM],IC50 (HDAC5) [µM],HCA outcome against intramacrophagic L. amazonensis amastigotes [3],IC50 (HDAC7) [µM],fold more potent against HDAC5 than against HDAC4 (HDAC5; ratio of IC50 HDAC4 / HDAC5) [fold]
"O=C(/C=C/c1ccc(CSc2nc(Cl)cc(-c3ccccc3)n2)cc1)NO [Compound 2, 3-(4-(((4-Chloro-6-phenylpyrimidin-2-yl)thio)methyl)phenyl)-N-hydroxy Acrylamide]",17.3,> 50,1.1 ± 2,2.5 ± 1.4,74.8 ± 2.5,2.8,1.68,2.31,0.12,0.53,2.22,39.7 ± 0.9,70% and 67.31 ± 2.9%,12.9,22.9,toxic,> 50,–
"CN(C)Cc1ccc(S(=O)(=O)n2ccc3cc(/C=C/C(=O)NO)ccc32)cc1 [Compound 6, 3-(1-((4-((Dimethylamino)methyl)phenyl)sulfonyl)-1H-indol-5-yl)-N-hydroxy Acrylamide]",16.7,31.1,7.9 ± 7.5,6.9 ± 8.7,8.6 ± 1.3,2.87,2.07,4.87,0.018,0.38,1.87,20.9 ± 0.9,22.8 ± 1.0%,> 20,3.43,toxic,> 50,5
